For data set [1] the following is noted: prior art; cited from earlier work.
Data set [2] is described as follows: Inhibition of adjuvant arthritis in rat, preventive effect (paw volume). It counts as in vivo, SD rats. The procedure:
(§1) Five SD rats 7 to 8 weeks old weighing about 150 g. were used as one group. A dispersion of mycobacterium butyricium in liquid parrafin in a concentration of 12 mg./ml. was injected intracutaneously into the footpad of the right hind foot in a dose of 0.05 ml./rat to cause an adjuvant arthritis (AA). For 30 days after the injection of the adjuvant, the volume of both hind feet was measured by a mercury plethysmography and AA was estimated from the obtained measurements.
(§2) With respect to Compound Nos. 1, 3 and 10, the preventive effect on AA was examined. The oral administration of the compound to be tested was begun at the same time as the administration of the adjuvant and continued for 30 days once a day. The same test was carried out with D-penicillamine and Levamisole.

A further data set is described as follows: Acute toxicity (LD50). The note with it: mouse, in vivo, mice, 7 days observation. As for the experimental part: Eight male ddY mice 5 to 6 weeks old weighing 25 to 30 g. were used as one group. A 5% suspension of the compound to be tested in gum arabic was administered intraperitoneally, intravenously or orally using a stomach tube. The animals were kept under observation for 7 days. The numbers of dead animals were counted and the LD50 values were calculated by the Van der Warden method.

The nature of data set [3]: Change in body weight of rat with adjuvant arthritis. Conditions: D-penicillamine or Levamisole; 1st, 10th, 20th and 30th day. It counts as in vivo, SD rats. As for the experimental part: as §1, §2
During the test of the preventive effect on AA as described in the above (1), the body weight of each rat was measured on 1st, 10th, 20th, and 30th day.

Another data set in a line: Clinical test, Case 2. It counts as in vivo, patient.
Data set [4] in a line: Effect on carrageenan-induced edema in rat. It counts as in vivo, SD rats. Conditions: dose 0.005 to 0.05 μg./animal, oral, 30 minutes before carrageenan. As for the experimental part: Five SD rats 7 to 8 weeks old weighing about 150 g. were used as one group. A 1% dispersion of carrageenan was injected intracutaneously into the foot pad of the right hind foot in a dose of 0.1 ml./rat. For 6 hours after the injection, the volume of the foot subjected to the injection was measured by a mercury plethysmography and the carrageenan-induced edema was estimated from the obtained measurements. Compound No. 3 was orally administered 30 minutes before the injection of the carrageenan dispersion.

The next data set can be described thus: Clinical test, Case 1. The data set is classed as in vivo, patient. Conditions: 50 μg. once a day, oral.
A short description of data set [5]: Pharmacological activities and side-effects, general statements.
Where [6] appears, read: dose 0.05 μg./animal, oral, once a day for 30 days.
Where [7] appears, read: dose 1.5 mg./animal (even at a higher dose).
Setting [8] is: 100 μg. once a day, oral, after 5 days.
Where [9] appears, read: after 3 weeks, twice a week after 7 days, oral.

Each structure is given as a SMILES string. Read-outs that look alike come from different tables or passages of the source.

We go through nine compounds from US4464383A, “Immunomodulator containing trithiazole pentamethine cyanine derivative” (priority 1981, dated 1984).

In the case of `O=C([O-])c1ccccc1Nc1cc(Cl)ccc1C(=O)[O-].[Na+].[Na+]` [CCA, N-(2-carboxyphenyl)-4-chloroanthranilic acid disodium salt], in data set [1], the “toxicity of known immunomodulators” value is given as “severe toxicities”.
On to `CCCCCCCCCCCCN1C(C)=CSC1=CC=C(C=Cc1scc(C)[n+]1CCCCCCCCCCCC)c1scc(C)[n+]1CCCCCCCCCCCC` [compound 10], for which the “inhibition of AA, preventive effect” value in data set [2] (setting [6]) was “inhibit AA”. In addition, the LD50 at 168 h in “Acute toxicity (LD50)” (ip, i.p., read-out: LD50 i.p.) is 300 mg/kg; in the data set “Acute toxicity (LD50)” (iv, i.v., read-out: LD50 i.v.) it was 45.2 mg/kg; in the data set “Acute toxicity (LD50)” (po, p.o., read-out: LD50 p.o.) it was greater than 1400 mg/kg.
With `c1ccc([C@H]2CN3CCSC3=N2)cc1` [Levamisole], the “inhibition of AA, preventive effect” value in data set [2] (setting [7]) is recorded as “do not inhibit AA”. Besides, the “change in body weight compared with Control” value in data set [3] is recorded as “no significant difference”. Moreover, the “toxicity of known immunomodulators” value in data set [1] was “severe toxicities”.
For the compound `CCCCCCCCN1C(C)=CS\C1=C/C=C(/C=C/c1scc(C)[n+]1CCCCCCCC)c1scc(C)[n+]1CCCCCCCC`, the LD50 at 168 h in the data set “Acute toxicity (LD50)” (ip, i.p., read-out: LD50 i.p.) was 120 mg/kg; in the data set “Acute toxicity (LD50)” (iv, i.v., read-out: LD50 i.v.), 13.5 mg/kg; in the data set “Acute toxicity (LD50)” (po, p.o., read-out: LD50 p.o.), greater than 1400 mg/kg.
`CC(C)(S)[C@@H](N)C(=O)O` [D-penicillamine]: the “inhibition of AA, preventive effect” value in data set [2] (setting [7]) was “do not inhibit AA”. Further, the “change in body weight compared with Control” value in data set [3] was “no significant difference”. Also, in data set [1], the “toxicity of known immunomodulators” value was “severe toxicities”.
Turning to `COc1ccc2c(c1)c(CC(=O)O)c(C)n2C(=O)c1ccc(Cl)cc1` [Indometacin, reference compound], the “side-effect of the medicines used before” value in “Clinical test, Case 2” (human, in vivo) was “gastric ulcer, urticaria and diarrhea”. The “condition of the patient on previous treatment” value in “Clinical test, Case 2” (suppository of Shiozol and that of Indometacin, before Compound No. 3) was “took a turn for the worse”.
Take `CC1=CSC(=CC=C(C=Cc2scc(C)[n+]2C)c2scc(C)[n+]2C)N1C` [compound 1]: the “inhibition of AA, preventive effect” value in data set [2] (setting [6]) is on record as “inhibit AA”. For the same compound, the LD50 at 168 h in the data set “Acute toxicity (LD50)” (ip, i.p., read-out: LD50 i.p.) was 23.4 mg/kg; in “Acute toxicity (LD50)” (iv, i.v., read-out: LD50 i.v.) it was 6.25 mg/kg; in the data set “Acute toxicity (LD50)” (po, p.o., read-out: LD50 p.o.), greater than 1400 mg/kg.
Take `CCCCN1C(C)=CSC1=CC=C(C=Cc1scc(C)[n+]1CCCC)c1scc(C)[n+]1CCCC` [compound 2]: the LD50 at 168 h in “Acute toxicity (LD50)” (ip, i.p., read-out: LD50 i.p.) is 51 mg/kg; in “Acute toxicity (LD50)” (iv, i.v., read-out: LD50 i.v.), 8.5 mg/kg; in “Acute toxicity (LD50)” (po, p.o., read-out: LD50 p.o.) it was greater than 1400 mg/kg.
For `CCCCCCCN1C(C)=CS\C1=C/C=C(/C=C/c1scc(C)[n+]1CCCCCCC)c1scc(C)[n+]1CCCCCCC`, the “inhibition of AA, preventive effect” value in data set [2] (dose 0.005 μg./animal, oral, once a day for 30 days) is recorded as “inhibited AA”; in data set [2] (setting [6]) it was “inhibit AA”. Moreover, the “anti-inflammatory action on carrageenan-induced edema” value in data set [4] is given as “did not show anti-inflammatory action”. For the same compound, the LD50 at 168 h was 100 mg/kg in the data set “Acute toxicity (LD50)” (ip, i.p., read-out: LD50 i.p.); 12 mg/kg in “Acute toxicity (LD50)” (iv, i.v., read-out: LD50 i.v.); greater than 1400 mg/kg in “Acute toxicity (LD50)” (po, p.o., read-out: LD50 p.o.). For the same compound, the side-effect result in the data set “Clinical test, Case 1” is on record as “no side-effect”; in “Clinical test, Case 2” (100 μg., oral) it was “No side-effect was observed”. Also, the therapeutic effect result in “Clinical test, Case 1” is “excellent therapeutic effect”. Moreover, the “inflammation at wrist articulatio coxae and violent pain” value in the data set “Clinical test, Case 1” (after 5 days) is listed as “almost removed”. In addition, the “stiffness in the morning and systemic malaise” value in the data set “Clinical test, Case 1” (after 5 days) was “relieved”. The mobility entry in “Clinical test, Case 1” (morning of the seventh day) is “could arise from a sickbed and go down the stairs with ease”. Besides, the “systemic malaise and stiffness in the morning” value in the data set “Clinical test, Case 2” (100 μg. once a day, oral, after 3 days) is recorded as “relieved”. Besides, in “Clinical test, Case 2” (setting [8]), the “inflammation at the joints” value is on record as “relieved”. For the same compound, the “need for suppository of Indometacin” value in the data set “Clinical test, Case 2” (setting [8]) is “no necessity for administering the suppository of Indometacin”. Moreover, the sleep entry in the data set “Clinical test, Case 2” (setting [8]) was “became to sleep well”. In addition, in “Clinical test, Case 2” (setting [9]), the ability to walk entry was “became to be able to walk”. In addition, the “swelling (hydrocele) at the joints” value in the data set “Clinical test, Case 2” (setting [9]) is recorded as “improved”. Also, in data set [5] (cytotoxicity (e.g. granulocytopenia), vomiting, nausea, pyrexia, rash and myasthenia), the side-effects entry is recorded as “does not have side-effects”. Also, the immunomodulating action entry is “shows an immunosuppressive effect” in data set [5] (immunological function enhanced), “shows an immunological activating effect” in data set [5] (immunological function lowered) and “has no influence on the normal immunological function” in data set [5] (normal immunological function). The known pharmacological activities entry in data set [1] is “antibacterial activity, the acceleration of wound healing, the stimulation of reticular hematopoietic organ and endocrine organ, and the enhancement of antibody formation”.

What is called LD50 is the dose at which mortality reaches 50%.
